According to patent US11008340B2, “Modulators of ROR-gamma” (Vitae Pharmaceuticals, LLC, priority 2015, dated 2021):
Like-named read-outs stand apart in the source and are kept apart here.

How the values were obtained:
[1] = biological target: T1, recombinant RORγ Ligand Binding Domain (LBD) protein (Homo sapiens, UniProt P51449); experiment: Radio-Ligand RORγ Binding Assay (Assay 1); conditions: radio-ligand competition, RORγ LBD, read-out: Avg ROR Bind Ki
T1 construct: 6×His; GST
T1 sequence (P51449 269-508 limits assumed): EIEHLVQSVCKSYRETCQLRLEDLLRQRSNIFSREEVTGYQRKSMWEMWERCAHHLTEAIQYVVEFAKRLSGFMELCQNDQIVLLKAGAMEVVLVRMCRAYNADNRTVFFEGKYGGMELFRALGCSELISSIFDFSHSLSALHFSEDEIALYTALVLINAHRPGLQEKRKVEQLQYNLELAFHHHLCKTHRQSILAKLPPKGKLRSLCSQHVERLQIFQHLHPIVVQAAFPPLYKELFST
Method in brief: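 Cell-free SPA competition between compound and 25-hydroxy[26,27-^3H]-cholesterol for 6×His-GST-tagged RORγ LBD in 50 mM HEPES pH 7.4 with NaCl, MgCl2, glycerol, CHAPS, octylglucoside and DTT. Mix was shaken 20 min, held 10 min at rt, then read after poly-Lys YSi beads. IC50 came from a four-parameter fit, and Ki from radioligand KD.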

[2] = biological target: T2, full-length RORγt in Jurkat cells (Homo sapiens, UniProt P51449); experiment: RORγt 5×RORE Assay in Jurkat Cells (Assay 2); assay type: cell-based; conditions: 5×RORE luciferase reporter
T2 construct: transcriptional activity of the full-length RORγt in Jurkat cells; host or cells: Jurkat cells (ATCC TIB-152)
T2 sequence (P51449 1-497 isoform P51449-2): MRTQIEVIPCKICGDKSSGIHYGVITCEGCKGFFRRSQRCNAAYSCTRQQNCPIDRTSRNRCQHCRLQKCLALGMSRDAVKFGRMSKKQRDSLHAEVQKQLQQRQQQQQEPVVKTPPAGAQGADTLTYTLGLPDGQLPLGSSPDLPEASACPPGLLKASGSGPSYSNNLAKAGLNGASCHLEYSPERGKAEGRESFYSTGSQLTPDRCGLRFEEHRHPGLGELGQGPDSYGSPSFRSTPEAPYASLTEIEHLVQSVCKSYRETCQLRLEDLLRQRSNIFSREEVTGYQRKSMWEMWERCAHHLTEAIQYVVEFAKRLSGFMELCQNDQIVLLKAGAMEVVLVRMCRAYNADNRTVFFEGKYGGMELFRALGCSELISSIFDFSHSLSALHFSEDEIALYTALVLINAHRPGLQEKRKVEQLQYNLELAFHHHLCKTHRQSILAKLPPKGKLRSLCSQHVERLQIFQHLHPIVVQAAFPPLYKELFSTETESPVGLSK
Description: [formula] RORγt 5×RORE Assay in Jurkat Cells (Assay 2)
Compounds described herein were tested for RORγ inverse agonist activity in a cell-based, transcriptional activity assay. Secreted Nanoluc″ luciferase was used as a reporter for transcriptional activity of the full-length RORγt in Jurkat cells (ATCC, Cat. #TIB-152). A reporter plasmid was constructed by inserting 5 repeats of the ROR Response Element (RORE) […] (SEQ ID NO: 1) into a commercially available promoterless plasmid pNL1.3[secNluc] (Promega, Cat. #N1021) using KpnI and HindIII restriction sites. The expression plasmid for RORγt was purchased (Geneocopoeia, Cat. #EX-T6988-M02). Jurkat cells (30 million cells) were transfected with 11 μg of EX-T6988-MO2 and 26 μg of the reporter plasmid in OptiMEM® media using Lipofectamine LTX and Plus™ reagents (Life Technologies, Cat. #15338-100). After 5-6 hrs of incubation at 37° C./5% CO2, the cells were collected, resuspended in phenol-red free RPMI media containing 10% (v/v) delipidated FBS (Hyclone, Cat. #SH30855.03) and dispensed into 96-well clear bottom tissue culture plates (CoStar, Cat. #3603), at 80,000 cells per well. Tested compounds were added to the cells in the same media (final concentration of DMSO was 0.1% (v/v)), and the plates were incubated at 37° C./5% CO2 for 16-18 hrs. Luciferase activity in the conditioned supernatants was determined with NanoGlo® assay reagents (Promega, Cat. #N1130).

[3] = 25-hydroxy [26,27-3H]-cholesterol
[4] = Table 20, read-out: Avg ROR γt/5x IC5
[5] = head without unit (Tables 15, 17)
[6] = head without unit (Tables 15, 17), read-out: Avg ROR γt/5x IC50

Structure (SMILES) | Ki [1, 3] [nM] | IC50 ([2]; read-out: Avg ROR γt/5x IC50) [nM] | IC50 [2, 4] [nM] | Ki [1, 5] [nM] | IC50 [2, 6] [nM]
CCS(=O)(=O)c1ccc([C@H](CO)NC(=O)c2ccc3c(Oc4ccc(OC(F)(F)F)cc4)nc(C)cc3c2)cc1 [Hy1A-15, (R)-N-(1-(4-(ethylsulfonyl)phenyl)-2-hydroxyethyl)-3-methyl-1-(4-(trifluoromethoxy)phenoxy)isoquinoline-6-carboxamide] | < 100 | 100 to 1000 |  |  | 
CCS(=O)(=O)c1ccc([C@H](CO)NC(=O)c2ccc3c(OCC4CCOCC4)nc(C)cc3c2)cc1 [Hy1A-1, (R)-N-(1-(4-(ethylsulfonyl)phenyl)-2-hydroxyethyl)-3-methyl-1-((tetrahydro-2H-pyran-4-yl)methoxy)isoquinoline-6-carboxamide] | < 100 | > 1000 |  |  | 
CC[C@H]1CN(c2ncc(-c3ncco3)cn2)Cc2cc(C(=O)N[C@@H](CO)c3ccc(S(=O)(=O)CC)cc3)ccc21 (single isomer, unassigned) [Hy7-33.2] | < 100 |  | 100 to 1000 |  | 
CC[C@@H]1CN(c2ncc(C(F)(F)F)cn2)Cc2cc(C(=O)N[C@@H](CO)c3ccc(S(=O)(=O)CC)cn3)ccc21 (single isomer, unassigned) [Hy7-18.1] | < 100 |  | < 100 |  | 
CCS(=O)(=O)c1ccc(CNC(=O)c2ccc3c(c2)CCN(Cc2ccc(F)cc2)C3C(C)C)cc1 (racemic) [Hy2A-13, N-(4-(ethylsulfonyl)benzyl)-2-(4-fluorobenzyl)-1-isopropyl-1,2,3,4-tetrahydroisoquinoline-6-carboxamide] | < 100 | < 100 |  |  | 
CCS(=O)(=O)c1ccc(CNC(=O)c2ccc3c(OC[C@H]4CC[C@H](C(F)(F)F)CC4)nc(C)cc3c2)cc1 [Hy1A-6, N-(4-(ethylsulfonyl)benzyl)-3-methyl-1-(((1r,4r)-4-(trifluoromethyl)cyclohexyl)methoxy)isoquinoline-6-carboxamide] | < 100 | < 100 |  |  | 
CCOC(=O)c1cnc(N2Cc3cc(C(=O)N[C@@H](CO)c4ccc(S(=O)(=O)CC)cc4)ccc3[C@H](CC)C2)nc1 (single isomer, unassigned) [Hy7-34.1] | < 100 |  | < 100 |  | 
CCS(=O)(=O)c1ccc(CNC(=O)c2ccc3c(c2)CN(Cc2ccc(F)cc2)C[C@@H]3C(C)C)cc1 (single isomer, unassigned) [Hy7-27.2] | < 100 |  | < 100 |  | 
CCS(=O)(=O)c1ccc([C@H](CO)NC(=O)c2ccc3c(C4CC4)n(Cc4ccc(C(F)(F)F)cc4)nc3c2)nc1 [Hy3A-7, (R)-3-cyclopropyl-N-(1-(5-(ethylsulfonyl)pyridin-2-yl)-2-hydroxyethyl)-2-(4-(trifluoromethyl)benzyl)-2H-indazole-6-carboxamide] | < 100 | < 100 |  |  | 
CCC1CN(c2ncc(C(F)(F)F)cn2)Cc2cc(C(=O)N[C@@H](CO)c3ccc(S(=O)(=O)CC)cc3)ccc21 (single isomer, unassigned) [Hy7-17.1] | < 100 |  | < 100 |  | 
CCS(=O)(=O)c1ccc(CNC(=O)c2ccc3c(c2)CCN(Cc2ccc(Cl)cc2)[C@@H]3C(C)C)cc1 (single isomer, unassigned) [Hy2A-20.2] | < 100 | 100 to 1000 |  |  | 
CCS(=O)(=O)c1ccc(CNC(=O)c2cn(C)c3c(OCc4ccc(C(F)(F)F)cc4)nccc23)cc1 [Hy5-3, N-(4-(ethylsulfonyl)benzyl)-1-methyl-7-((4-(trifluoromethyl)benzyl)oxy)-1H-pyrrolo[2,3-c]pyridine-3-carboxamide] | < 100 | < 100 |  |  | 
CCS(=O)(=O)c1ccc([C@H](CO)NC(=O)c2ccc3c(OCc4ccc(C(F)(F)F)cc4)cc(C)nc3c2)cc1 [Hy1B-3, (R)-N-(1-(4-(ethylsulfonyl)phenyl)-2-hydroxyethyl)-2-methyl-4-((4-(trifluoromethyl)benzyl)oxy)quinoline-7-carboxamide] | < 100 | 100 to 1000 |  |  | 
CC[C@H]1CN(c2ncc(C(F)(F)F)cn2)Cc2cc(C(=O)NCc3ccc(S(=O)(=O)CC)cn3)ccc21 (single isomer, unassigned) [Hy7-10.1] | < 100 |  | < 100 |  | 
CC[C@H]1CN(c2ncc(C3CC3)cn2)Cc2cc(C(=O)N[C@@H](CO)c3ccc(S(=O)(=O)CC)cc3)ccc21 (single isomer, unassigned) [Hy7-11.2] | < 100 |  | > 1000 |  | 
CCS(=O)(=O)c1ccc(CNC(=O)c2ccc3c(c2)CN(c2ncc(C(F)(F)F)cn2)C[C@@H]3C(F)(F)F)cc1 (single isomer, unassigned) [Hy7-36.2] | < 100 |  | > 1000 |  | 
CC[C@@H]1CN(c2ncc(C(F)(F)F)cc2C#N)Cc2cc(C(=O)N[C@@H](CO)c3ccc(S(=O)(=O)CC)cc3)ccc21 (single isomer, unassigned) [Hy7-37.1] | < 100 |  | < 100 |  | 
CCS(=O)(=O)c1ccc(CNC(=O)c2ccc3c(c2)C(C)(C)CN(Cc2cnc(C)cn2)[C@H]3C(C)C)cc1 (single isomer, unassigned) [Hy2A-22.1] | < 100 | 100 to 1000 |  |  | 
CCS(=O)(=O)c1ccc([C@H](CO)NC(=O)c2ccc3c(C4CC4)n(C[C@H]4CC[C@H](C(F)(F)F)CC4)nc3c2)nc1 [Hy3A-6, 3-cyclopropyl-N-((R)-1-(5-(ethylsulfonyl)pyridin-2-yl)-2-hydroxyethyl)-2-(((1r,4R)-4-(trifluoromethyl)cyclohexyl)methyl)-2H-indazole-6-carboxamide] | < 100 | < 100 |  |  | 
CC[C@@H]1CN(c2ncc(C(F)(F)F)cc2C)Cc2cc(C(=O)N[C@@H](CO)c3ccc(S(=O)(=O)CC)cc3)ccc21 (single isomer, unassigned) [Hy7-22.1] | < 100 |  | < 100 |  | 
CCS(=O)(=O)c1ccc(CNC(=O)c2cnc3c(c2)CCN(C[C@H]2CC[C@H](C(F)(F)F)CC2)[C@H]3C(C)C)cc1 (single isomer, unassigned) [Hy2B-9.1] |  |  |  | < 100 | 100 to 1000
CCS(=O)(=O)c1ccc([C@H](CO)NC(=O)c2sc3nc(C)nc(OCc4ccc(C(F)(F)F)cc4)c3c2C)cc1 [Hy6-3, (R)-N-(1-(4-(ethylsulfonyl)phenyl)-2-hydroxyethyl)-2,5-dimethyl-4-((4-(trifluoromethyl)benzyl)oxy)thieno[2,3-d]pyrimidine-6-carboxamide] | < 100 | < 100 |  |  | 
CCS(=O)(=O)c1ccc([C@H](CO)NC(=O)c2ccc3c(OCC4CCC(F)(F)CC4)nc(C)cc3c2)cc1 [Hy1A-14, (R)-1-((4,4-difluorocyclohexyl)methoxy)-N-(1-(4-(ethylsulfonyl)phenyl)-2-hydroxyethyl)-3-methylisoquinoline-6-carboxamide] | < 100 | < 100 |  |  | 
CCC1CN(C2CCC(C(F)(F)F)CC2)Cc2cc(C(=O)NC(CO)c3ccc(S(=O)(=O)CC)cc3)ccc21 (single isomer, unassigned) [Hy7-35.2] | < 100 |  | > 1000 |  | 
CC[C@H]1CN(c2ncc(C(F)(F)F)cn2)Cc2cc(C(=O)NCc3ccc(S(=O)(=O)CC)cc3)ccc21 (single isomer, unassigned) [Hy7-9.2] | < 100 |  | > 1000 |  | 
CCS(=O)(=O)c1ccc(CNC(=O)c2cnc3c(c2)CCN(C[C@H]2CC[C@H](C(F)(F)F)CC2)[C@H]3C(C)C)nc1 (single isomer, unassigned) [Hy2B-10.1] |  |  |  | 100 to 1000 | 100 to 1000
